Holding throughout (assay type): cell-based
The test system of one assay is SW48 cells (wt). Put plainly: Cell viability assay (CellTiter-Glo), SW48 cells. The note with it: Homo sapiens, 72 h; SW48 cells, 3 days incubation, CellTiter-Glo luminescence; read-out: Inhibition of Cancerous Cells IC50 SW48 (wt). The procedure:
(§1) H358, H23, SW48, and AsPC-1 cells were cultured in RPMI 1640 media supplemented with 10% fetal bovine serum, streptomycin, and penicillin. Lovo and SW480 cells were cultured in DMEM media supplemented with 10% fetal bovine serum, streptomycin, and penicillin. The cell lines were plated in their respective medium supplemented with 2.5% fetal bovine serum, streptomycin, and penicillin. All cell lines were plated in white walled 96-well plates at 2,000 cells/well or 384-well plates at 500 cells/well, except Lovo, which were plated at 4,000 or 1,000 cells/well, respectively. The cells were incubated in DMSO (control) or a compound for 3 days at 37° C. under 5% CO2. A CELLTITER-GLO® reagent (100 μL) was then added to each well. After a 10 min incubation with shaking, luminescence was measured using an ENVISION® multimode plate reader.
A general note: ATP-based viability assays read luminescence as a measure of living cells.

The test system of another assay is SW480 cells (G12V). Put plainly: Cell viability assay (CellTiter-Glo), SW480 cells. Particulars: Homo sapiens, 72 h; SW480 cells, 3 days incubation, CellTiter-Glo luminescence; read-out: Inhibition of Cancerous Cells IC50 SW480 (G12V). The procedure:
as §1

In another assay the test system is H358 cells (G12C). Description: Cell viability assay (CellTiter-Glo), H358 cells. The note with it: Homo sapiens, NCI-H358, 72 h; H358 cells, 3 days incubation, CellTiter-Glo luminescence; read-out: Inhibition of Cancerous Cells IC50 H358 (G12C). The procedure:
as §1

In another assay the test system is Lovo cells (G13D). Put plainly: Cell viability assay (CellTiter-Glo), Lovo cells. The note with it: Homo sapiens, 72 h; Lovo cells, 3 days incubation, CellTiter-Glo luminescence; read-out: Inhibition of Cancerous Cells IC50 Lovo (G13D). The procedure:
as §1

For 14 molecules, IC50 results are on record in patent US20240025863A1, “SOS1 PROTEIN DEGRADERS, PHARMACEUTICAL COMPOSITIONS THEREOF, AND THEIR THERAPEUTIC APPLICATIONS” (BioTheryX, Inc., priority 2020, published 2024).

In general, IC50 refers to the concentration that inhibits the measured activity by half. Regarding `COc1cc2c(N[C@H](C)c3cccc(Br)c3)nc(C)nc2cc1OCCCCCCNC(=O)[C@H](CC(C)C)NC(=O)[C@@H](O)[C@H](N)Cc1ccccc1` [Compound B6, (S)-2-((2S,3R)-3-amino-2-hydroxy-4-phenylbutanamido)-N-(6-((4-(((R)-1-(3-bromophenyl)ethyl)amino)-6-methoxy-2-methylquinazolin-7-yl)oxy)hexyl)-4-methylpentanamide], the IC50 is 0.68 µM in the assay with SW48 cells (wt), 0.66 µM in the assay with SW480 cells (G12V), 1.2 µM in the assay on H358 cells (G12C) and 1 µM with Lovo cells (G13D).

On to `COc1cc2c(N[C@H](C)c3cccc(Br)c3)nc(C)nc2cc1OCCCCCCC(=O)N[C@H](C(=O)N1C[C@H](O)C[C@H]1C(=O)NCc1ccc(-c2scnc2C)cc1)C(C)(C)C` [Compound D1, (2S,4R)-1-((S)-2-(7-((4-(((R)-1-(3-Bromophenyl)ethyl)amino)-6-methoxy-2-methylquinazolin-7-yl)oxy)heptanamido)-3,3-dimethylbutanoyl)-4-hydroxy-N-(4-(4-methyl-thiazol-5-yl)benzyl)pyrrolidine-2-carboxamide], for which the IC50 was found to be 7.9 µM with SW48 cells (wt), 1.3 µM in the assay on SW480 cells (G12V), 1.6 µM with H358 cells (G12C) and 6.4 µM in the assay on Lovo cells (G13D).

Turning to `COc1ccc(C2=N[C@@H](c3ccc(Cl)cc3)[C@@H](c3ccc(Cl)cc3)N2C(=O)N2CCN(CC(=O)NCCCCCCCCOc3cc4nc(C)nc(N[C@H](C)c5cccc(Br)c5)c4cc3OC)C(=O)C2)c(OC(C)C)c1` [Compound C2, 2-(4-((4S,5R)-4,5-bis(4-chlorophenyl)-2-(2-isopropoxy-4-methoxyphenyl)-4,5-dihydro-1H-imidazole-1-carbonyl)-2-oxopiperazin-1-yl)-N-(8-((4-(((R)-1-(3-bromophenyl)-ethyl)amino)-6-methoxy-2-methylquinazolin-7-yl)oxy)octyl)acetamide], the IC50 in the assay on SW48 cells (wt), in the assay on SW480 cells (G12V), in the assay with H358 cells (G12C) and in the assay on Lovo cells (G13D) was more than 10 µM in each case.

`COc1cc2c(N[C@H](C)c3cccc(Br)c3)nc(C)nc2cc1OCCCCCCCC(=O)NCc1cccc2c1CN(C1CCC(=O)NC1=O)C2=O` (stereo partly drawn) [Compound A7, 8-((4-(((R)-1-(3-Bromophenyl)ethyl)amino)-6-methoxy-2-methylquinazolin-7-yl)oxy)-N-((2-(2,6-dioxopiperidin-3-yl)-1-oxoisoindolin-4-yl)methyl)octanamide]: the IC50 was 5 µM in the assay with SW48 cells (wt), 6.4 µM in the assay with SW480 cells (G12V), 5.4 µM in the assay on H358 cells (G12C) and 3.5 µM in the assay with Lovo cells (G13D).

On to `COc1cc2c(N[C@H](C)c3cccc(Br)c3)nc(C)nc2cc1OCCCCCCCCC(=O)NCc1cccc2c1CN(C1CCC(=O)NC1=O)C2=O` (stereo partly drawn) [Compound A6, 9-((4-(((R)-1-(3-bromophenyl)ethyl)amino)-6-methoxy-2-methylquinazolin-7-yl)oxy)-N-((2-(2,6-dioxopiperidin-3-yl)-1-oxoisoindolin-4-yl)methyl)nonanamide], for which the IC50 in the assay with SW48 cells (wt) is more than 10 µM; in the assay with SW480 cells (G12V), 8.3 µM; in the assay on H358 cells (G12C) it was 9.9 µM; in the assay on Lovo cells (G13D) it was 4.9 µM.

Regarding `COc1cc2c(N[C@H](C)c3cccc(Br)c3)nc(C)nc2cc1OCCCCCCCCCCC(=O)N1CCC(CN2CCN(c3cc4c(cc3F)C(=O)N(C3CCC(=O)NC3=O)C4=O)CC2)CC1` (stereo partly drawn) [Compound A35, 5-(4-((1-(11-((4-(((R)-1-(3-Bromophenyl)ethyl)amino)-6-methoxy-2-methyl-quinazolin-7-yl)oxy)undecanoyl)piperidin-4-yl)methyl)piperazin-1-yl)-2-(2,6-dioxopiperidin-3-yl)-6-fluoroisoindoline-1,3-dione], the IC50 is 4.1 µM with SW48 cells (wt), 2.5 µM with SW480 cells (G12V), more than 10 µM in the assay on H358 cells (G12C) and 0.54 µM in the assay with Lovo cells (G13D).

Take `COc1cc2c(N[C@H](C)c3cccc(Br)c3)nc(C)nc2cc1OCCCCN1CCN(C(=O)CNc2cc(F)cc3c2CN(C2CCC(=O)NC2=O)C3=O)CC1` (stereo partly drawn) [Compound A57, 3-(4-((2-(4-(4-((4-(((R)-1-(3-Bromophenyl)ethyl)amino)-6-methoxy-2-methyl-quinazolin-7-yl)oxy)butyl)piperazin-1-yl)-2-oxoethyl)amino)-6-fluoro-1-oxoisoindolin-2-yl)piperidine-2,6-dione]: the IC50 was determined as 2.9 µM in the assay with SW48 cells (wt), 5.2 µM in the assay with SW480 cells (G12V), 3.3 µM with H358 cells (G12C) and 0.9 µM in the assay on Lovo cells (G13D).

Regarding `COc1cc2c(N[C@H](C)c3cccc(Br)c3)nc(C)nc2cc1OCCCCCCC(=O)N1CCC(CN2CCN(c3cc4c(cc3F)C(=O)N(C3CCC(=O)NC3=O)C4=O)CC2)CC1` (stereo partly drawn) [Compound A33, 5-(4-((1-(7-((4-(((R)-1-(3-Bromophenyl)ethyl)amino)-6-methoxy-2-methyl-quinazolin-7-yl)oxy)heptanoyl)piperidin-4-yl)methyl)piperazin-1-yl)-2-(2,6-dioxopiperidin-3-yl)-6-fluoroisoindoline-1,3-dione], the IC50 with SW48 cells (wt) is 3.3 µM; in the assay on SW480 cells (G12V), 0.57 µM; with H358 cells (G12C) it was more than 10 µM; in the assay on Lovo cells (G13D), 0.18 µM.

As for `COc1cc2c(N[C@H](C)c3cccc(Br)c3)nc(C)nc2cc1OCCCCCCCCCCCCC(=O)N[C@H](C(=O)N1C[C@H](O)C[C@H]1C(=O)NCc1ccc(-c2scnc2C)cc1)C(C)(C)C` [Compound D4, (2S,4R)-1-((S)-2-(13-((4-(((R)-1-(3-Bromophenyl)ethyl)amino)-6-methoxy-2-methylquinazolin-7-yl)oxy)tridecanamido)-3,3-dimethylbutanoyl)-4-hydroxy-N-(4-(4-methylthiazol-5-yl)benzyl)pyrrolidine-2-carboxamide], the IC50 in the assay on SW48 cells (wt) is more than 10 µM; in the assay on SW480 cells (G12V), 2.7 µM; with H358 cells (G12C) it was more than 10 µM; with Lovo cells (G13D), more than 10 µM.

On to `COc1ccc(C2=N[C@@H](c3ccc(Cl)cc3)[C@@H](c3ccc(Cl)cc3)N2C(=O)N2CCN(CC(=O)NCCCCCCCCCCOc3cc4nc(C)nc(N[C@H](C)c5cccc(Br)c5)c4cc3OC)C(=O)C2)c(OC(C)C)c1` [Compound C3, 2-(4-((4S,5R)-4,5-Bis(4-chlorophenyl)-2-(2-isopropoxy-4-methoxyphenyl)-4,5-dihydro-1H-imidazole-1-carbonyl)-2-oxopiperazin-1-yl)-N-(10-((4-(((R)-1-(3-bromophenyl)-ethyl)amino)-6-methoxy-2-methylquinazolin-7-yl)oxy)decyl)acetamide], for which the IC50 with SW48 cells (wt), in the assay with SW480 cells (G12V), in the assay with H358 cells (G12C) and in the assay on Lovo cells (G13D) was more than 10 µM in each case.

With `COc1cc2c(N[C@H](C)c3cccc(Br)c3)nc(C)nc2cc1OCCCCCCCC(=O)NCc1scc2c1CN(C1CCC(=O)NC1=O)C2=O` (stereo partly drawn) [Compound A38, 8-((4-(((R)-1-(3-Bromophenyl)ethyl)amino)-6-methoxy-2-methylquinazolin-7-yl)oxy)-N-((5-(2,6-dioxopiperidin-3-yl)-4-oxo-5,6-dihydro-4H-thieno[3,4-c]pyrrol-1-yl)methyl)-octanamide], the IC50 was found to be 7.9 µM in the assay on SW48 cells (wt), 6.4 µM with SW480 cells (G12V), 6.3 µM in the assay with H358 cells (G12C) and 6.1 µM in the assay with Lovo cells (G13D).

On to `COc1cc2c(N[C@H](C)c3cccc(Br)c3)nc(C)nc2cc1OCCCCCCCCCCCOc1cc(-c2scnc2C)ccc1CNC(=O)[C@@H]1C[C@@H](O)CN1C(=O)[C@@H](NC(C)=O)C(C)(C)C` [Compound D13, (2S,4R)-1-((S)-2-Acetamido-3,3-dimethylbutanoyl)-N-(2-((11-((4-(((R)-1-(3-bromophenyl)ethyl)amino)-6-methoxy-2-methylquinazolin-7-yl)oxy)undecyl)oxy)-4-(4-methylthiazol-5-yl)benzyl)-4-hydroxypyrrolidine-2-carboxamide], for which the IC50 in the assay on SW48 cells (wt) is more than 10 µM; with SW480 cells (G12V), 2.9 µM; in the assay on H358 cells (G12C), more than 10 µM; with Lovo cells (G13D), 1.6 µM.

On to `COc1cc2c(N[C@H](C)c3cccc(Br)c3)nc(C)nc2cc1OCCCCCCCCN1CCC(c2cc3c(cc2F)C(=O)N(C2CCC(=O)NC2=O)C3)CC1` (stereo partly drawn) [Compound A50, 3-(5-(1-(8-((4-(((R)-1-(3-Bromophenyl)ethyl)amino)-6-methoxy-2-methyl-quinazolin-7-yl)oxy)octyl)piperidin-4-yl)-6-fluoro-1-oxoisoindolin-2-yl)piperidine-2,6-dione], for which the IC50 with SW48 cells (wt) was found to be 0.79 µM; with SW480 cells (G12V), 0.47 µM; in the assay with H358 cells (G12C), 0.96 µM; with Lovo cells (G13D), 0.43 µM.

Consider `COc1cc2c(N[C@H](C)c3cccc(Br)c3)nc(C)nc2cc1OCCCCCCCCC(=O)N1CCC(CN2CCN(c3cc4c(cc3F)C(=O)N(C3CCC(=O)NC3=O)C4=O)CC2)CC1` (stereo partly drawn) [Compound A34, 5-(4-((1-(9-((4-(((R)-1-(3-Bromophenyl)ethyl)amino)-6-methoxy-2-methyl-quinazolin-7-yl)oxy)nonanoyl)piperidin-4-yl)methyl)piperazin-1-yl)-2-(2,6-dioxopiperidin-3-yl)-6-fluoroisoindoline-1,3-dione], for which the IC50 was 3.4 µM with SW48 cells (wt), 0.64 µM in the assay with SW480 cells (G12V), more than 10 µM in the assay with H358 cells (G12C) and 0.3 µM with Lovo cells (G13D).
